The source of these data is ChEMBL document CHEMBL2406931, “The inhibitory effect of a synthetic compound, (Z)-5-(2,4-dihydroxybenzylidene) thiazolidine-2,4-dione (MHY498), on nitric oxide-induced melanogenesis” (2013).

The test system of assay [1] is B16-F10. Description: Inhibition of SNP-induced NO production in mouse B16F10 cells at 16 uM incubated 1 hr prior to SNP challenge measured after 48 hrs by Griess assay (reference value: 237.84 +/- 4.12%); values are per cent of control. For orientation: Griess reagent forms a coloured azo dye with nitrite.
For assay [2], the system named is B16-F10. Description: Inhibition of SNP-induced NO production in mouse B16F10 cells assessed as decrease of intracellular cGMP level at 16 uM incubated for 1 hr prior to SNP challenge measured after 30 mins by EIA relative to control. To be noted: values are per cent of control. Format: functional.
The test system of assay [3] is B16-F10. Description: Antimelanogenic activity in mouse B16F10 cells assessed as reduction in SNP-induced phosphorylated CREB level at 16 uM by Western blotting analysis. Type of assay: functional, cell-based. Background: Immunoblotting shows a protein as a band on a membrane.
For assay [4], the system named is B16-F10. Description: Antimelanogenic activity in mouse B16F10 cells assessed as reduction of SNP-induced melanin level at 16 uM incubated for 1 hr prior to SNP challenge measured after 48 hrs (reference value: 282.59 +/- 47.06%). Format: functional.
Assay [5] addresses T1, Tyrosinase (Mus musculus) (UniProt P11344).
T1 sequence (whole entry): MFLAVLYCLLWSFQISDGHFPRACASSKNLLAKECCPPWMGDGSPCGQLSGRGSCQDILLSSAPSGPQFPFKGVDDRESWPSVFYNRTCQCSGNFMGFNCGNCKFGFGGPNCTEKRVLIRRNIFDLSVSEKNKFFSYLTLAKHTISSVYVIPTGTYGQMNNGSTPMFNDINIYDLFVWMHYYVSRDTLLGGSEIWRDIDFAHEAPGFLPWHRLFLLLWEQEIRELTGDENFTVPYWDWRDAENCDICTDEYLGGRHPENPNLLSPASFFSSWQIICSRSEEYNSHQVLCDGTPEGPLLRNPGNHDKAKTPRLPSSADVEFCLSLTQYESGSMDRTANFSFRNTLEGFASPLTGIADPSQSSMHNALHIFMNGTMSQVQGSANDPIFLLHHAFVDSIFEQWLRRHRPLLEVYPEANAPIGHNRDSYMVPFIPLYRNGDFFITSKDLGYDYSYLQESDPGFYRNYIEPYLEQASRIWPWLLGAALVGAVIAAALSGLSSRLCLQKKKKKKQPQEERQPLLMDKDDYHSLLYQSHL
Description: Inhibition of tyrosinase in mouse B16F10 cells at 30 uM incubated for 1 hr prior to SNP challenge measured after 48 hrs (reference value: 198.83 +/- 11.46%). Type of assay: cell-based. To be noted: B16-F10.

The subject of assay [6] is B16-F10. Description: Inhibition of SNP-induced NO production in mouse B16F10 cells assessed as decrease of intracellular cGMP level at 0.5 uM incubated for 1 hr prior to SNP challenge measured after 30 mins by EIA relative to control. Type of assay: functional. To be noted: values are per cent of control.
Assay [7] has as its target T1, Tyrosinase (Mus musculus). Description: Inhibition of tyrosinase in SNP-stimulated mouse B16F10 cells at 16 uM incubated for 1 hr prior to SNP challenge measured after 48 hrs (reference value: 198.83 +/- 11.46%). Type of assay: cell-based. The settings on record: B16-F10, values are per cent of control.
Assay [8] has as its system B16-F10. Description: Antimelanogenic activity in mouse B16F10 cells assessed as reduction in SNP-induced phosphorylated CREB level at 0.5 to 4 uM by Western blotting analysis. Format: functional, cell-based.
For assay [9], the target named is T1, Tyrosinase (Mus musculus). Description: Inhibition of tyrosinase in SNP-stimulated mouse B16F10 cells at 4 uM incubated for 1 hr prior to SNP challenge measured after 48 hrs (reference value: 198.83 +/- 11.46%). The settings on record: B16-F10, values are per cent of control. Format: cell-based.
The subject of assay [10] is B16-F10. Description: Antimelanogenic activity in mouse B16F10 cells assessed as reduction of SNP-induced melanin level at 4 uM incubated for 1 hr prior to SNP challenge measured after 48 hrs (reference value: 282.59 +/- 47.06%). Type of assay: functional.
Assay [11] has as its system B16-F10. Description: Inhibition of SNP-induced NO production in mouse B16F10 cells at 4 uM incubated 1 hr prior to SNP challenge measured after 48 hrs by Griess assay (reference value: 237.84 +/- 4.12%); values are per cent of control.
In assay [12] the test system is B16-F10. Description: Inhibition of SNP-induced NO production in mouse B16F10 cells at 0.5 uM incubated 1 hr prior to SNP challenge measured after 48 hrs by Griess assay (reference value: 237.84 +/- 4.12%); values are per cent of control.
For assay [13], the system named is B16-F10. Description: Antimelanogenic activity in mouse B16F10 cells assessed as reduction of SNP-induced melanin level incubated for 1 hr prior to SNP challenge measured after 48 hrs. Format: functional, cell-based.
The subject of assay [14] is B16-F10. Description: Antimelanogenic activity in mouse B16F10 cells assessed as reduction in SNP-induced tyrosinase protein level by Western blotting analysis. Format: functional, cell-based.
The test system of assay [15] is B16-F10. Description: Inhibition of SNP-induced NO production in mouse B16F10 cells incubated 1 hr prior to SNP challenge measured after 48 hrs by Griess assay. Type of assay: functional, cell-based.
Assay [16] has as its system B16-F10. Description: Inhibition of SNP-induced NO production in mouse B16F10 cells assessed as decrease of intracellular cGMP level incubated for 1 hr prior to SNP challenge measured after 30 mins by EIA relative to control. Format: functional, cell-based.
Assay [17] deals with T1, Tyrosinase (Mus musculus). Description: Inhibition of tyrosinase in SNP-stimulated mouse B16F10 cells at 0.5 uM incubated for 1 hr prior to SNP challenge measured after 48 hrs (reference value: 198.83 +/- 11.46%). Format: cell-based. To be noted: B16-F10, values are per cent of control.
Assay [18] concerns B16-F10. Description: Antimelanogenic activity in mouse B16F10 cells assessed as reduction in SNP-induced nuclear MITF level by Western blotting analysis. Format: functional, cell-based.
The test system of assay [19] is B16-F10. Description: Antimelanogenic activity in mouse B16F10 cells assessed as reduction of SNP-induced melanin level at 0.5 uM incubated for 1 hr prior to SNP challenge measured after 48 hrs (reference value: 282.59 +/- 47.06%). Type of assay: functional.
Assay [20] relates to B16-F10. Description: Inhibition of SNP-induced NO production in mouse B16F10 cells assessed as decrease of intracellular cGMP level at 4 uM incubated for 1 hr prior to SNP challenge measured after 30 mins by EIA relative to control. Type of assay: functional. To be noted: values are per cent of control.

Molecules are shown by their SMILES. Activity calls are given as the source filed them. The rule behind the calls is not given here.

Usually inhibition stands for how much of the control response was suppressed. Regarding `CC1(C)N([O])C(c2ccc(C(=O)O)cc2)=[N+]([O-])C1(C)C`, the level, % of control at 16 µM worked out at 206% with B16-F10 [1] and 173% in the assay on B16-F10 [4]. In addition, in the assay on B16-F10 [2], the response, % of control at 16 µM turned out to be 153%. Besides, the inhibition entry in the assay with B16-F10 [3] was “Active”. This compound also came in with an inhibition in assay [5] of 34.3%.
Turning to `O=C1NC(=O)/C(=C/c2ccc(O)cc2O)S1`, the response, % of control at 0.5 µM in the assay on B16-F10 [6] turned out to be 177%. For the same compound, the residual activity in assay [7] was 31.8%; in [9], 60.5%; in assay [17], 84.8%. The inhibition result in the assay on B16-F10 [8] is “inactive”. The level, % of control at 16 µM with B16-F10 [1] is 172%; in the assay on B16-F10 [4] it was 100%. Further, the level, % of control at 4 µM with B16-F10 [10] turned out to be 114%; with B16-F10 [11], 183%. Besides, the level, % of control at 0.5 µM in the assay with B16-F10 [12] came out at 200%; with B16-F10 [19] it was 151%. For the same compound, the inhibition entry in the assay on B16-F10 [13], in the assay on B16-F10 [14], in the assay with B16-F10 [15], with B16-F10 [16] and in the assay on B16-F10 [18] was “Dose-dependent effect” each time. Also, the response, % of control at 16 µM in the assay on B16-F10 [2] came out at 83.1%. The inhibition result in the assay with B16-F10 [3] was “Active”. The response, % of control at 4 µM with B16-F10 [20] turned out to be 154%.
